Experimental data reported in ChEMBL document CHEMBL4376816, “Discovery of the Oral Leukotriene C4 Synthase Inhibitor (1S,2S)-2-({5-[(5-Chloro-2,4-difluorophenyl)(2-fluoro-2-methylpropyl)amino]-3-methoxypyrazin-2-yl}carbonyl)cyclopropanecarboxylic Acid (AZD9898) as a New Treatment for Asthma” (J Med Chem, 2019).
≈ marks a conversion by molar mass, not a printed value. Blank lines part the entries; values can stand above or below the molecule they belong to. Calls of active or inactive are those of the source. The rule behind the calls is not given here.

Experiments:
[1] = Clearance in Han Wistar rat at 0.5 mg/kg, iv or 1 mg/kg, po after 24 hrs; type: ADME, organism-based; conditions: in vivo
[2] = Intrinsic clearance in human hepatocytes at 1 uM assessed as per million cells after 2 to 60 mins by LC-MS/MS analysis; type: ADME, cell-based, Hepatocyte; conditions: read-out: CLH
[3] = Fraction unbound in human plasma by equilibrium dialysis based LC-MS analysis; type: ADME, cell-free
[4] = Toxicity in rat assessed as unilateral sperm granuloma at 300 mg/kg, po after 7 days; type: organism-based; conditions: in vivo
[5] = Effective half life in Beagle dog at 1 mg/kg, iv infusion or 2 mg/kg, po via gavage after 48 hrs; type: ADME, organism-based, Canis lupus familiaris; conditions: in vivo, read-out: t1/2eff (converted)
Cytochrome P450 2D6 = Cytochrome P450 2D6 (Homo sapiens, UniProt P10635); assay: Inhibition of recombinant human CYP2D6 using coumarin based substrate by fluorescence assay; type: ADME
[6] = biological target: Voltage-gated inwardly rectifying potassium channel KCNH2 (Homo sapiens, UniProt Q12809); assay: Inhibition of human ERG by electrophysiology based assay
Cytochrome P450 3A4 = Cytochrome P450 3A4 (Homo sapiens, UniProt P08684); assay: Inhibition of recombinant human CYP3A4 expressed in Escherichia coli using coumarin based substrate by fluorescence assay; type: ADME
Cytochrome P450 1A2 = biological target: T1, Cytochrome P450 1A2 (Homo sapiens, UniProt P05177); assay: Inhibition of recombinant human CYP1A2 using coumarin based substrate by fluorescence assay; type: ADME
T1 sequence (P05177 whole entry): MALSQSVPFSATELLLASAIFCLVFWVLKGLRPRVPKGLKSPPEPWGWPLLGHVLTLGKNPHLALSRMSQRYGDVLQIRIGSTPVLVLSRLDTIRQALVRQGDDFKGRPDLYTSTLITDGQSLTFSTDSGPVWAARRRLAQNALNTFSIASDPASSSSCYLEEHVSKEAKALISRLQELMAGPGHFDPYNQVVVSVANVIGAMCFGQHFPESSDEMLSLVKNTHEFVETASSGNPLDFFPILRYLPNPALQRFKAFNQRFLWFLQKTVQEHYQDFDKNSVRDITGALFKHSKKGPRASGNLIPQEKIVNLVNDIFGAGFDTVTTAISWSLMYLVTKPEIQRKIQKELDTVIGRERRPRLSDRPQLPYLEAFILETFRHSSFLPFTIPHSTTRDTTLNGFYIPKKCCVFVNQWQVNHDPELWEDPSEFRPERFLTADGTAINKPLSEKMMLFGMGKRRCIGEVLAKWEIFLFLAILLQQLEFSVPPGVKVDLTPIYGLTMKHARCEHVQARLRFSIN

[7] = Fraction unbound in Beagle dog plasma by equilibrium dialysis based LC-MS analysis; type: ADME, cell-free, Canis lupus familiaris
[8] = Volume of distribution at steady state in Han Wistar rat at 0.5 mg/kg, iv or 1 mg/kg, po after 24 hrs; type: ADME, organism-based; conditions: in vivo, read-out: Vdss
[9] = Octanol/Sodium phosphate buffer partition coefficient, log D of compound at pH 7.4 at 1 mg incubated for overnight under shaking condition by LC-MS/MS analysis; type: physicochemical
Cytochrome P450 2C9 = Cytochrome P450 2C9 (Homo sapiens, UniProt P11712); assay: Inhibition of recombinant human CYP2C9 expressed in Escherichia coli using coumarin based substrate by fluorescence assay; type: ADME
[10] = Toxicity in rat assessed as bilirubinemia at 300 mg/kg, po after 7 days; type: organism-based; conditions: in vivo
[11] = AUC in po dosed rat at LOAEL measured after 7 days; type: ADME, organism-based; conditions: in vivo
[12] = Cmax in po dosed rat at NOAEL measured after 7 days; type: ADME, organism-based; parameters: route oral; conditions: in vivo
[13] = Clearance in Beagle dog at 1 mg/kg, iv infusion or 2 mg/kg, po via gavage after 48 hrs; type: ADME, organism-based, Canis lupus familiaris; conditions: in vivo
[14] = Apparent permeability across apical to basolateral side in human Caco2 cells; conditions: Caco-2
[15] = Effective half life in Han Wistar rat at 0.5 mg/kg, iv or 1 mg/kg, po after 24 hrs; type: ADME, organism-based; conditions: in vivo, read-out: t1/2eff (converted)
[16] = Toxicity in rat assessed as sperm granuloma at 300 mg/kg, po after 7 days; type: organism-based; conditions: in vivo
Rattus norvegicus = assay: In vivo inhibition of LTC4S in po dosed Sprague-Dawley rat assessed as unbound drug concentration required for inhibition of calcium ionophore A23187-induced cysteinyl leukotrienes production in BAL fluid by LC-MS/MS analysis; type: functional
[17] = Displacement of [3H]-GABA/[3]-muscimol from GABA gated chloride channel in Sprague-Dawley rat cortical synoptic membranes by liquid scintillation analysis
[18] = Toxicity in rat assessed as liver hypertrophy at 300 mg/kg, po after 7 days; type: organism-based; conditions: in vivo
[19] = biological target: T2, Solute carrier organic anion transporter family member 1B1 (Homo sapiens, UniProt Q9Y6L6); assay: Inhibition of OATP1B1 (unknown origin) expressed in HEK293 cells measured after 0.5 to 20 mins by scintillation counting analysis; type: ADME, cell-based
T2 sequence (Q9Y6L6 whole entry): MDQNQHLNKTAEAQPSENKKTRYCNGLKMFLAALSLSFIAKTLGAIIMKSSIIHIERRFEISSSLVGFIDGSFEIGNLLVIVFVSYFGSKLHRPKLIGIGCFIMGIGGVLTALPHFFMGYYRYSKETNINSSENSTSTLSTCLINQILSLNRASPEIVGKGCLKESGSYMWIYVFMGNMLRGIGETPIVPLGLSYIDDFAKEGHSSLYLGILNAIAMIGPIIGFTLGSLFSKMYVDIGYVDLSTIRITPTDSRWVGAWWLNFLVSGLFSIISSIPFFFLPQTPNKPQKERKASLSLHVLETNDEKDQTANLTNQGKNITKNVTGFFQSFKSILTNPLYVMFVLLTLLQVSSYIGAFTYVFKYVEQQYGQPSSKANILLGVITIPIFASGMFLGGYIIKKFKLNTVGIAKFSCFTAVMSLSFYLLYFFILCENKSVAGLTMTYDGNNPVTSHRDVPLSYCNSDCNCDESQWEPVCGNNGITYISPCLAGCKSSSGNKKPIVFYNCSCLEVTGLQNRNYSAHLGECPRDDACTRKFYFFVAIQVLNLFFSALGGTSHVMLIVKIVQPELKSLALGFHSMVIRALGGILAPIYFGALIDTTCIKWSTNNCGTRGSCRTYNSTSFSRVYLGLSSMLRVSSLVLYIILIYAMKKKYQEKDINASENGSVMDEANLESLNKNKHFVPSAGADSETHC

[20] = Volume of distribution at steady state in Beagle dog at 1 mg/kg, iv infusion or 2 mg/kg, po via gavage after 48 hrs; type: ADME, organism-based, Canis lupus familiaris; conditions: in vivo, read-out: Vdss
[21] = AUC in po dosed rat at NOAEL measured after 7 days; type: ADME, organism-based; conditions: in vivo
[22] = Thermodynamic solubility of compound in pH 7.4 PBS at 1 mg/ml incubated for 24 hrs under shaking condition by LC-MS/MS analysis; type: physicochemical; conditions: read-out: Therm_solubility
[23] = Oral bioavailability in Beagle dog at 2 mg/kg via gavage after 48 hrs; type: ADME, organism-based, Canis lupus familiaris; conditions: in vivo
[24] = Cmax in po dosed rat at LOAEL measured after 7 days; type: ADME, organism-based; parameters: route oral; conditions: in vivo
[25] = Oral bioavailability in Han Wistar rat at 1 mg/kg after 24 hrs; type: ADME, organism-based; conditions: in vivo
[26] = Fraction unbound in Sprague-Dawley rat plasma by equilibrium dialysis based LC-MS analysis; type: ADME, cell-free
Cytochrome P450 2C19 = Cytochrome P450 2C19 (Homo sapiens, UniProt P33261); assay: Inhibition of recombinant human CYP2C19 using coumarin based substrate by fluorescence assay; type: ADME
[27] = biological target: T3, Leukotriene C4 synthase (Homo sapiens) (UniProt Q16873); assay: Inhibition of LTC4S in healthy human whole blood assessed as inhibition of calcium ionophore A23187 stimulated cysteinyl leukotrienes production preincuabted for 30 mins followed by calcium ionophore stimulation and measured after 10 mins by LC-MS analysis; type: tissue-based
T3 sequence (whole entry): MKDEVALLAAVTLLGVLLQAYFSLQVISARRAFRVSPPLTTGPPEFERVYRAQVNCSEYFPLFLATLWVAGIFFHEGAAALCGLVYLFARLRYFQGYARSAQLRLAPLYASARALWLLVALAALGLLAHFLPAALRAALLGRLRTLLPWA

Leukotriene C4 synthase = biological target: T4, Leukotriene C4 synthase (Homo sapiens, UniProt Q16873)
T4 sequence (Q16873 whole entry): T3 sequence (whole entry)

[28] = biological target: T3, Leukotriene C4 synthase (Homo sapiens); assay: Inhibition of LTC4S in asthmatic human whole blood assessed as inhibition of calcium ionophore A23187 stimulated cysteinyl leukotrienes production preincuabted for 30 mins followed by calcium ionophore stimulation and measured after 10 mins by LC-MS analysis; type: tissue-based

Sequence of Cytochrome P450 2C9 (P11712 whole entry): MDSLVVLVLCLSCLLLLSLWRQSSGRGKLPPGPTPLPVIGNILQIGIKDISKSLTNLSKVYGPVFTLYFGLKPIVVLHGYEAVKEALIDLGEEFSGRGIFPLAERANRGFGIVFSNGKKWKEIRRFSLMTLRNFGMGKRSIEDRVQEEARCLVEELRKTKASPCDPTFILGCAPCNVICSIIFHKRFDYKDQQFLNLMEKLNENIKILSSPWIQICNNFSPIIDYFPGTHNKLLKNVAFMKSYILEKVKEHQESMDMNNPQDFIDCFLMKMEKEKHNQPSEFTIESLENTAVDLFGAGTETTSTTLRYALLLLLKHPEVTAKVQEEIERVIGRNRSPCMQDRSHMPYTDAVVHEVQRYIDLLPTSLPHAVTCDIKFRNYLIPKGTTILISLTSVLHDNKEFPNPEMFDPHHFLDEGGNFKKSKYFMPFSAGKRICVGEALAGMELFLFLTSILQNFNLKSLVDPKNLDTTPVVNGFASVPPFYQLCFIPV
Sequence of Cytochrome P450 2D6 (P10635 whole entry): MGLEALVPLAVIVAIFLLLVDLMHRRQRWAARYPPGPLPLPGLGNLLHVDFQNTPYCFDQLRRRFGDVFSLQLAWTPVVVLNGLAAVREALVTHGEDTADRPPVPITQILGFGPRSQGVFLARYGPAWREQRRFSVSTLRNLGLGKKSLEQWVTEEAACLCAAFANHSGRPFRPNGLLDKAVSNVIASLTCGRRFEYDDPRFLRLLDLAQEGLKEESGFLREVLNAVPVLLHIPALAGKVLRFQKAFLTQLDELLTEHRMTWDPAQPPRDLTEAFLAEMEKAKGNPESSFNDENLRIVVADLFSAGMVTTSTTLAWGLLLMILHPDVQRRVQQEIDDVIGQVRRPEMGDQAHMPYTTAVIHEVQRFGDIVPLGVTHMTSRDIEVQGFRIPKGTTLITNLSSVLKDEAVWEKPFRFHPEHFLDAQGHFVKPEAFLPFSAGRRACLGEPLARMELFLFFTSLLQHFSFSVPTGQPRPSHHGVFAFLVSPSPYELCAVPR
Sequence of Cytochrome P450 3A4 (P08684 whole entry): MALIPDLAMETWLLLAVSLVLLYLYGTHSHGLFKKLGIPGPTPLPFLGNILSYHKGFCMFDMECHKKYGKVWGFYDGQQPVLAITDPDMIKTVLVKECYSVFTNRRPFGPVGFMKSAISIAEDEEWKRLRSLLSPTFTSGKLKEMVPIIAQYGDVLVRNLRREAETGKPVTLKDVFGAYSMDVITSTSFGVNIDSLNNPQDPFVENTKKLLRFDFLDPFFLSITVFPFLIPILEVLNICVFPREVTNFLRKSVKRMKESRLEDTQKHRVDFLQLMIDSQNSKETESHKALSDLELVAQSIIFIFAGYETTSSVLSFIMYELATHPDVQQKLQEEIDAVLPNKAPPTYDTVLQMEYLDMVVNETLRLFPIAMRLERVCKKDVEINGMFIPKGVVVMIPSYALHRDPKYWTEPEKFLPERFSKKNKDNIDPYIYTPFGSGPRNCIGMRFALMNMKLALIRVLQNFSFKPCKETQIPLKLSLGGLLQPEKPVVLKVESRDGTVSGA
Sequence of Cytochrome P450 2C19 (P33261 whole entry): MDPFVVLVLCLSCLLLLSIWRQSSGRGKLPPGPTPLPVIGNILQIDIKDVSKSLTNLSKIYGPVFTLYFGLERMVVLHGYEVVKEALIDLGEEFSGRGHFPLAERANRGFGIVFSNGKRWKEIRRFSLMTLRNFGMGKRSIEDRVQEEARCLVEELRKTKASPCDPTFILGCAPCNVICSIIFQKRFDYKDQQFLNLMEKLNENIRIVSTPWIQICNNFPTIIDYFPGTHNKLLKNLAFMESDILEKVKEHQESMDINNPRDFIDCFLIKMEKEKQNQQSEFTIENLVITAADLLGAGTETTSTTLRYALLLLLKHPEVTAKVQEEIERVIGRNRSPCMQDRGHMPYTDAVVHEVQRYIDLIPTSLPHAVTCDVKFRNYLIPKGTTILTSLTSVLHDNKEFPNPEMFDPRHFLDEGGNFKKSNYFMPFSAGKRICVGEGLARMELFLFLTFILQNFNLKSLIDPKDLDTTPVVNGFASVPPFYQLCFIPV
Sequence of Voltage-gated inwardly rectifying potassium channel KCNH2 (Q12809 whole entry): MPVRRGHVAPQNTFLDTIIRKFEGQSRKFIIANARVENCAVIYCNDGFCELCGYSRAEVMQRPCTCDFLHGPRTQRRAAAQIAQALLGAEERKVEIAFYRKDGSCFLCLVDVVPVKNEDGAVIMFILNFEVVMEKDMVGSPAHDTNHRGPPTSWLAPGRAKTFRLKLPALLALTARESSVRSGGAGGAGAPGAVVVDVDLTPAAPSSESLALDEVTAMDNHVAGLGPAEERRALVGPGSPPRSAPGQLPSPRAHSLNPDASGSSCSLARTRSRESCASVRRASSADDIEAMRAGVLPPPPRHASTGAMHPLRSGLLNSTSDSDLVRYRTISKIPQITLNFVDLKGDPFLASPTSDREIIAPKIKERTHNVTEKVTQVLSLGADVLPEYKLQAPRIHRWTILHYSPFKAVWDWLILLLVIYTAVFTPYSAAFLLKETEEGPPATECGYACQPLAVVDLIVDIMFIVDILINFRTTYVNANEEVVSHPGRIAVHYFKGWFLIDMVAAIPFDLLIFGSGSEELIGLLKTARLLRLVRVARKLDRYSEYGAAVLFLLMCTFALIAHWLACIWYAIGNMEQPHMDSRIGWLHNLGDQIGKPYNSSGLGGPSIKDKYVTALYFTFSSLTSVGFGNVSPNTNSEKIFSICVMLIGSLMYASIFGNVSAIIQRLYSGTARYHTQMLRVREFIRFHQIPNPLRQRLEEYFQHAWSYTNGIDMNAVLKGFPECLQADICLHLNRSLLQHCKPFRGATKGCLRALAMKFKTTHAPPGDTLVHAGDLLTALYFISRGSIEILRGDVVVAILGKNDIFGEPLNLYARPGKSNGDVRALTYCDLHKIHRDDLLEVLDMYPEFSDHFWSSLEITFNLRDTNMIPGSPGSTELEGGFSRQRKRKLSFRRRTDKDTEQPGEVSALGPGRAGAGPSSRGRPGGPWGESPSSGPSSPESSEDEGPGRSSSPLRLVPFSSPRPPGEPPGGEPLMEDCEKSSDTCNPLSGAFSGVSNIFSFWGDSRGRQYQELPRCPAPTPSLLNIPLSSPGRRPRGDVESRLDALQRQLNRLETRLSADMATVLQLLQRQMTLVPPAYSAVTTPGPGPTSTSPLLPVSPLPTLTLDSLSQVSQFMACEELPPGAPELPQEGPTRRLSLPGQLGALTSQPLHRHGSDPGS

clearance [1]: 12 mL/min/kg
hepatocyte CLint at 1 µM [2]: 5 µL/min/1e6 cells
fraction unbound [3]: 0.0066
half-life [5]: 4.8 h
IC50 (Cytochrome P450 2D6): > 20 µM
IC50 (Cytochrome P450 3A4): > 20 µM
IC50 (Cytochrome P450 1A2): > 20 µM
fraction unbound [7]: 0.0021
Vd [8]: 2.8 L/kg
logD [9]: 2.4
IC50 (Cytochrome P450 2C9): > 20 µM
clearance [13]: 2.4 mL/min/kg
Papp A→B [14]: 105 ×10⁻⁶ cm/s
half-life [15]: 2.7 h
IC50 [17]: 0.074 µM
INH [19]: 0.6 µM
Vd [20]: 1.1 L/kg
solubility thermodynamic at 24 h [22]: 576 µM (≈ 260 µg/mL)
bioavailability [23]: 91%
bioavailability [25]: 46%
fraction unbound [26]: 0.0062
IC50 (Cytochrome P450 2C19): > 20 µM
Structure (SMILES): COc1cc(N(CC2CC2)c2ccc(Cl)c3ccccc23)cnc1C(=O)[C@H]1C[C@@H]1C(=O)O
Activity [4]: Toxic
inhibition (INH) [6]: Not Active
Activity [10]: Toxic
AUC [11]: 1830 µM·h
Cmax at […] [12]: 47 µM
Activity [16]: Toxic
fEC50 (Rattus norvegicus): 7.5 nM
Activity [18]: Toxic
AUC [21]: 200 µM·h
Cmax at […] [24]: 144 µM

inhibition [27]: Active
IC50 (Leukotriene C4 synthase): < 5 µM
inhibition [28]: Active
Structure (SMILES): CC(C)(O)c1ccccc1CC[C@@H](SCC1(CC(=O)O)CC1)c1cccc(/C=C/c2ccc3ccc(Cl)cc3n2)c1 [MONTELUKAST]
